Laboratory results: US10722520B2, “Heterocyclic compounds and their use in preventing or treating bacterial infections” (MUTABILIS, priority 2016, dated 2020)
Where two headings read alike, the source gives them in different places.

Key:
[1] = target: OXA-1 (Escherichia coli, UniProt P13661)
[2] = tested on: E. coli UFR41; assay: MIC of compound alone, broth microdilution; type: cell-based; settings: strain UFR41: E. coli, TEM-1, CTX-M-15, CMY-2, OXA-1, NDM-4; for MIC: Escherichia coli, read-out: MIC compounds of the invention alone
Method in brief: (§1)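 Visual end point: lowest concentration that blocked growth. Conditions: cation-adjusted Mueller-Hinton broth, 5×10^5 cfu/mL final inoculum of log-phase bacteria, 16-20 h, 35° C, ambient atmosphere.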

[3] = tested on: E. cloacae UFR70; assay: MIC of compound alone, broth microdilution; type: cell-based; settings: strain UFR70: E. cloacae, TEM-1, CTX-M-15, CMY-2, OXA-1, Porin loss; for MIC: Enterobacter cloacae, read-out: MIC compounds of the invention alone
Method in brief: as §1

[4] = tested on: K. pneumoniae UFR77; assay: MIC of compound alone, broth microdilution; type: cell-based; settings: strain UFR77: K. pneumoniae, CMY-2; for MIC: Klebsiella pneumoniae, read-out: MIC compounds of the invention alone
Method in brief: as §1

[5] = tested on: K. oxytoca UFR21; assay: MIC of compound alone, broth microdilution; type: cell-based; settings: strain UFR21: K. oxytoca, TEM-1, CTX-M-15, OXA-48; for MIC: Klebsiella oxytoca, read-out: MIC compounds of the invention alone
Method in brief: as §1

[6] = tested on: E. coli 190317; assay: MIC of compound alone, broth microdilution; type: cell-based; settings: strain 190317: E. coli, TEM-1, SHV-12, CTX-M-15, OXA-1; for MIC: Escherichia coli, read-out: MIC compounds of the invention alone
Method in brief: as §1

[7] = tested on: K. pneumoniae 160143; assay: MIC of compound alone, broth microdilution; type: cell-based; settings: strain 160143: K. pneumoniae, TEM-1, SHV-1, CTX-M-15, KPC-2, OXA-1; for MIC: Klebsiella pneumoniae, read-out: MIC compounds of the invention alone
Method in brief: as §1

[8] = tested on: E. cloacae P99; assay: MIC of compound alone, broth microdilution; type: cell-based; settings: strain P99: E. cloacae, AmpC; for MIC: Enterobacter cloacae, read-out: MIC compounds of the invention alone
Method in brief: as §1

[9] = tested on: K. pneumoniae 200047; assay: MIC of compound alone, broth microdilution; type: cell-based; settings: strain 200047: K. pneumoniae, TEM-1, SHV-32, CTX-M-15, OXA-1; for MIC: Klebsiella pneumoniae, read-out: MIC compounds of the invention alone
Method in brief: as §1

[10] = tested on: K. pneumoniae UFR24; assay: MIC of compound alone, broth microdilution; type: cell-based; settings: strain UFR24: K. pneumoniae, TEM-1, SHV-2, SHV-11, OXA-1, OXA-48, OXA-47; for MIC: Klebsiella pneumoniae, read-out: MIC compounds of the invention alone
Method in brief: as §1

[11] = tested on: E. coli UFR18; assay: MIC of compound alone, broth microdilution; type: cell-based; settings: strain UFR18: E. coli, CTX-M-15, OXA-204; for MIC: Escherichia coli, read-out: MIC compounds of the invention alone
Method in brief: as §1

[12] = tested on: E. cloacae 260508; assay: MIC of compound alone, broth microdilution; type: cell-based; settings: strain 260508: E. cloacae, TEM-1, CTX-M-15; for MIC: Enterobacter cloacae, read-out: MIC compounds of the invention alone
Method in brief: as §1

[13] = tested on: E. coli UFR39; assay: MIC of compound alone, broth microdilution; type: cell-based; settings: for MIC: Escherichia coli, UFR39, read-out: MIC compounds of the invention alone
Method in brief: as §1

[14] = tested on: E. coli UFR61O; assay: MIC of compound alone, broth microdilution; type: cell-based; settings: strain UFR61O: E. coli, TEM-1, KPC-2; for MIC: Escherichia coli, read-out: MIC compounds of the invention alone
Method in brief: as §1

[15] = tested on: E. coli UFR74; assay: MIC of compound alone, broth microdilution; type: cell-based; settings: strain UFR74: E. coli, SHV-1, DHA-1; for MIC: Escherichia coli, read-out: MIC compounds of the invention alone
Method in brief: as §1

[16] = tested on: E. coli 131119; assay: MIC of compound alone, broth microdilution; type: cell-based; settings: strain 131119: E. coli, TEM-1, OXA-48; for MIC: Escherichia coli, read-out: MIC compounds of the invention alone
Method in brief: as §1

[17] = tested on: K. pneumoniae UFR68; assay: MIC of compound alone, broth microdilution; type: cell-based; settings: strain UFR68: K. pneumoniae, TEM-1, SHV-11, CTX-M-15, KPC-3; for MIC: Klebsiella pneumoniae, read-out: MIC compounds of the invention alone
Method in brief: as §1

[18] = tested on: K. pneumoniae 6299; assay: MIC of compound alone, broth microdilution; type: cell-based; settings: strain 6299: K. pneumoniae, TEM-1, SHV-11, OXA-163; for MIC: Klebsiella pneumoniae, read-out: MIC compounds of the invention alone
Method in brief: as §1

[19] = tested on: K. pneumoniae BAA-1898; assay: MIC of compound alone, broth microdilution; type: cell-based; settings: strain BAA-1898: K. pneumoniae, TEM-1, SHV-11, SHV-12, KPC-2; for MIC: Klebsiella pneumoniae, BAA1898, read-out: MIC compounds of the invention alone
Method in brief: as §1

[20] = tested on: E. cloacae UFR51; assay: MIC of compound alone, broth microdilution; type: cell-based; settings: strain UFR51: E. cloacae, SHV-12, IMP-8; for MIC: Enterobacter cloacae, read-out: MIC compounds of the invention alone
Method in brief: as §1

[21] = tested on: P. aeruginosa CIP107051; assay: MIC of compound alone, broth microdilution; type: cell-based; settings: strain CIP107051: P. aeruginosa, TEM-24; for MIC: Pseudomonas aeruginosa, read-out: MIC compounds of the invention alone
Method in brief: as §1

[22] = tested on: E. cloacae UFR85; assay: MIC of compound alone, broth microdilution; type: cell-based; settings: strain UFR85: E. cloacae, TEM-1, CTX-M-15, AmpC; for MIC: Enterobacter cloacae, read-out: MIC compounds of the invention alone
Method in brief: as §1

[23] = tested on: E. coli UFR32; assay: MIC of compound alone, broth microdilution; type: cell-based; settings: strain UFR32: E. coli, TEM-1, VEB-1, OXA-10; for MIC: Escherichia coli, read-out: MIC compounds of the invention alone
Method in brief: as §1

[24] = tested on: E. coli RGN238; assay: microbe, parasite or virus in culture; type: cell-based; settings: for MIC: Escherichia coli, RGN238, read-out: MIC compounds of the invention alone
Protocol: Log phase bacterial suspensions were adjusted to a final density of 5×10^5 cfu/mL in cation-adjusted Mueller-Hinton broth (Becton-Dickinson) and added to each well (98 μL). Microplates were incubated for 16-20 h at 35° C. in ambient air. The MIC of the compounds was defined as the lowest concentration of said compounds that prevented bacterial growth as read by visual inspection.

[25] = target: OXA-11 (Pseudomonas aeruginosa, UniProt Q06778)

O=C1N2CC(n3ccnn3)=CC(C2)N1OS(=O)(=O)[O-].[Na+] (stereo not drawn) [Example 2, sodium [7-oxo-3-(triazol-1-yl)-1,6-diazabicyclo[3.2.1]oct-3-en-6-yl]sulfate]
IC50 ([1]; read-out: IC50 β-lactamase OXA-1, class (D), nitrocefin 200 μM, 30-min pre-incubation, enzyme 0.2 nM): 58 nM
MIC compounds of the invention alone [2]: 2 µg/mL
MIC compounds of the invention alone [3]: 1 µg/mL
MIC compounds of the invention alone [4]: 2 µg/mL
MIC compounds of the invention alone [5]: 2 µg/mL
MIC compounds of the invention alone [6]: 1 µg/mL
MIC compounds of the invention alone [7]: 2 µg/mL
MIC compounds of the invention alone [8]: 1 µg/mL
MIC compounds of the invention alone [9]: 2 µg/mL
MIC compounds of the invention alone [10]: 4 µg/mL
MIC compounds of the invention alone [11]: 1 µg/mL
MIC compounds of the invention alone [12]: 2 µg/mL
MIC compounds of the invention alone ([13]; strain UFR39: E. coli, CTX-M-15, NDM-1): 1 µg/mL
MIC compounds of the invention alone [14]: 4 µg/mL
MIC compounds of the invention alone [15]: 2 µg/mL
MIC compounds of the invention alone [16]: 1 µg/mL
MIC compounds of the invention alone [17]: 4 µg/mL
MIC compounds of the invention alone [18]: 4 µg/mL
MIC compounds of the invention alone [19]: 2 µg/mL
MIC compounds of the invention alone [20]: 2 µg/mL
MIC compounds of the invention alone [21]: >32 µg/mL
MIC compounds of the invention alone [22]: 1 µg/mL
MIC compounds of the invention alone [23]: 1 µg/mL
MIC compounds of the invention alone ([24]; strain RGN238: E. coli, OXA-1): 2 µg/mL
IC50 ([25]; read-out: IC50 β-lactamase OXA-11, class (D), nitrocefin 200 μM, 30-min pre-incubation, enzyme 1.2 nM): 40 nM

O=C1N2CC(n3nccn3)=CC(C2)N1OS(=O)(=O)O (stereo not drawn) [Example 3, sodium [7-oxo-3-(triazol-2-yl)-1,6-diazabicyclo[3.2.1]oct-3-en-6-yl]sulfate]
IC50 [1]: 200 nM
MIC [2]: 16 µg/mL
MIC [3]: 4 µg/mL
MIC [4]: 4 µg/mL
MIC [5]: 8 µg/mL
MIC [6]: 2 µg/mL
MIC [7]: 4 µg/mL
MIC [8]: 8 µg/mL
MIC [9]: 4 µg/mL
MIC [10]: 8 µg/mL
MIC [11]: 2 µg/mL
MIC [12]: 4 µg/mL
MIC [13]: 8 µg/mL
MIC [14]: 8 µg/mL
MIC [15]: 8 µg/mL
MIC [16]: 1 µg/mL
MIC [17]: 8 µg/mL
MIC [18]: 16 µg/mL
MIC [19]: 8 µg/mL
MIC [20]: 2 µg/mL
MIC [21]: > 32 µg/mL
MIC [22]: 4 µg/mL
MIC [23]: 2 µg/mL
MIC [24]: 2 µg/mL
IC50 [25]: 85 nM

O=C1N2CC(n3ccnn3)=C[C@H](C2)N1OS(=O)(=O)O [Example 6, sodium [(5R)-7-oxo-3-(triazol-1-yl)-1,6-diazabicyclo[3.2.1]oct-3-en-6-yl]sulfate]
IC50 [1]: 31 nM
MIC [2]: 2 µg/mL
MIC [3]: 0.5 µg/mL
MIC [4]: 1 µg/mL
MIC [5]: 1 µg/mL
MIC [6]: 0.5 µg/mL
MIC [7]: 1 µg/mL
MIC [8]: 1 µg/mL
MIC [9]: 1 µg/mL
MIC [10]: 1 µg/mL
MIC [11]: 0.5 µg/mL
MIC [12]: 1 µg/mL
MIC [13]: 1 µg/mL
MIC [14]: 2 µg/mL
MIC [15]: 1 µg/mL
MIC [16]: 0.5 µg/mL
MIC [17]: 1 µg/mL
MIC [18]: 2 µg/mL
MIC [19]: 2 µg/mL
MIC [20]: 1 µg/mL
MIC [21]: 32 µg/mL
MIC [22]: 1 µg/mL
MIC [23]: 0.5 µg/mL
MIC [24]: 1 µg/mL
IC50 [25]: 21 nM
